Values quoted from earlier work, collected in patent publication US12533310B2, “Fragrance or flavor composition” (Takasago International Corporation, priority 2019, dated 2026).

Legend:
[1] = target: T1, olfactory receptor OR2W1 (Homo sapiens, UniProt Q9Y3N9); conditions: background art, cited from earlier work
T1 sequence (Q9Y3N9 1-320): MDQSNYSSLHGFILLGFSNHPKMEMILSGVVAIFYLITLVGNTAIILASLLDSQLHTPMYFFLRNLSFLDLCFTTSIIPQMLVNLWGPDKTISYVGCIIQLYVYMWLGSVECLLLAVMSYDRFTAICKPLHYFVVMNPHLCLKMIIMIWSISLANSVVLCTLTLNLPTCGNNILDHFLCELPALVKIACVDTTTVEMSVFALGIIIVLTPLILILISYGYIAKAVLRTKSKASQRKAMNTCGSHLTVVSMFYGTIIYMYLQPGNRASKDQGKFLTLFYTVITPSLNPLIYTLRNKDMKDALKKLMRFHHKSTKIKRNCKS

[2] = background art, Patent Literature 4; cited from earlier work

CCCCCC(=O)O [hexanoic acid]
response of olfactory receptor OR2W1 [1]: responds to hexanoic acid

CC(C)c1cccc(C(C)CC=O)c1 (stereo not drawn) [florhydral]
inhibition of the activity of OR2W1 ([1]; Patent Literature 4): inhibiting the activity of this OR2W1 | suppression of offensive odor induced by hexanoic acid in sensory testing [2]: suppress an offensive odor induced by hexanoic acid
